Experimental data: ChEMBL document CHEMBL1201862, “PubChem BioAssay data set” (2004)
Calls of active or inactive are those of the source.

How the values were obtained:
[1] = viability loss of HPDE-C7K cells – cell-based, fluorescence, HTS, primary screen (AID 431); format: functional; conditions: Homo sapiens
[2] = HPDE-C7 pancreatic duct cell viability loss – fluorescence, HTS (AID 430); format: functional, cell-based; conditions: Homo sapiens
Vero [3] = assay: cells; format: functional, cell-based; conditions: Chlorocebus sabaeus
Vero [4] = assay: cells; format: functional; conditions: Chlorocebus sabaeus
[5] = DRD fibroblast viability loss – cell-based, non-viral oncogenic, luminescence, dose response (AID 1934); format: functional; conditions: Homo sapiens
BJ [6] = assay: BJ-TERT fibroblast viability loss – cell-based, RAS-independent, luminescence, dose response (AID 1933); format: functional; conditions: Homo sapiens
[7] = Luminescence-based dose response cell-based high throughput screening assay for cytotoxic compounds using the IEC-6 intestinal epithelial cell line. [Related pubchem assays: 1858 (Summary AID.), 1825 (Counterscreen.), 1907 (Confirmation screen.)]; format: functional
Nonstructural protein 1 = Nonstructural protein 1 (Influenza A virus, UniProt Q194T2); format: functional, Influenza A virus (A/California/07/2009(H1N1))
[8] = HepG2 cell cytotoxicity, dose response, cytotoxicity control for non-replicating M. tuberculosis project (AID 489018); format: functional; conditions: Mycobacterium tuberculosis
INS1 = assay: INS-1E survival protection against cytokine death – cell-based, luminescence, retest, dose response (AID 449756); format: functional; conditions: Rattus norvegicus;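 note: cell death triggered by IL-1 beta plus TNF-alpha plus IFN-gamma mixture; protective hits raise ATP signal compared with cytokine alone wells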
[9] = Vero E6 cell cytotoxicity, dose response, cytotoxicity control for non-replicating M. tuberculosis project, secondary assay (AID 492998); format: functional, VeroE6; conditions: Vero C1008
BJ [10] = assay: growth inhibition of engineered Ras-driven BJ cells – cell-based, alamar blue fluorescence, cherrypicked samples, dose response (AID 2631); format: functional; conditions: Homo sapiens;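 note: confirmatory dose-response assay in RAS-dependent BJ fibroblasts engineered with TERT, LT and ST, with cytotoxicity read by fluorescence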
BJ [11] = assay: BJ-TERT-LT-ST fibroblast viability loss – cell-based, RAS-independent, luminescence, dose response (AID 1935); format: functional; conditions: Homo sapiens;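 note: BJ fibroblasts immortalized with TERT plus LT and ST oncogenes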
BJ [12] = assay: cells; format: functional, cell-based; conditions: Homo sapiens
[13] = THP-1 cell cytotoxicity, dose response, cytotoxicity control for non-replicating M. tuberculosis project (AID 489025); format: functional
cells = format: functional
Leucine aminopeptidase = target: T1, Leucine aminopeptidase (Plasmodium falciparum 3D7, UniProt Q8IL11); assay: P. falciparum M17LAP inhibitors, primary screen, biochemical, fluorogenic H-Leu-NHMec substrate, 1536-well (AID 1619); format: functional
T1 sequence (Q8IL11 whole entry): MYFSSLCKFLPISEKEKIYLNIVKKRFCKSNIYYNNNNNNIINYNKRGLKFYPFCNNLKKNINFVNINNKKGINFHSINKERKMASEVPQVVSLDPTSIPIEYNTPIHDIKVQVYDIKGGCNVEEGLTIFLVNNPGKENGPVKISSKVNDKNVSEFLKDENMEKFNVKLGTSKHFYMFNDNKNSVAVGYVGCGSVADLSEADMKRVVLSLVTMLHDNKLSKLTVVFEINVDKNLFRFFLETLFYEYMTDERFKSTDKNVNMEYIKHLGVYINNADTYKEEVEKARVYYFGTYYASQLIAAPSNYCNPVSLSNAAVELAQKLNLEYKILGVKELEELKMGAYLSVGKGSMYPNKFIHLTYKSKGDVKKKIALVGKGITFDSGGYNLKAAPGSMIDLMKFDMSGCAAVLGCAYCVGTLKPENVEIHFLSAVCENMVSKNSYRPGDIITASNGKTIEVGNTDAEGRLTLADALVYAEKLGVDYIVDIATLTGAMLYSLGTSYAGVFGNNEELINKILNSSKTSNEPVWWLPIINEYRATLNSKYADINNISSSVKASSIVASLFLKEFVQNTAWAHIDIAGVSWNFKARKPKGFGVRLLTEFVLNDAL

Procathepsin L [14] = target: T2, Procathepsin L (Homo sapiens, UniProt P07711); assay: CTSL1 protease inhibition – biochemical, QFRET, 1536-well, counter-screen for M1/M17 aminopeptidase inhibitor project, dose response (AID 2214)
Aspartyl aminopeptidase [15] = target: T3, Aspartyl aminopeptidase (Plasmodium falciparum 3D7, UniProt Q8I2J3); assay: Counterscreen for inhibitors of M1 and M17 aminopeptidases: QFRET-based biochemical high throughput dose response assay for inhibitors of the Plasmodium falciparum M18 Aspartyl Aminopeptidase (PFM18AAP). [Related PubChem assays: 1619 (Screening assay (M17LAP inhibitors).), 1445 (Screening assay (M1AAP inhibitors).)]
T3 sequence (Q8I2J3 whole entry): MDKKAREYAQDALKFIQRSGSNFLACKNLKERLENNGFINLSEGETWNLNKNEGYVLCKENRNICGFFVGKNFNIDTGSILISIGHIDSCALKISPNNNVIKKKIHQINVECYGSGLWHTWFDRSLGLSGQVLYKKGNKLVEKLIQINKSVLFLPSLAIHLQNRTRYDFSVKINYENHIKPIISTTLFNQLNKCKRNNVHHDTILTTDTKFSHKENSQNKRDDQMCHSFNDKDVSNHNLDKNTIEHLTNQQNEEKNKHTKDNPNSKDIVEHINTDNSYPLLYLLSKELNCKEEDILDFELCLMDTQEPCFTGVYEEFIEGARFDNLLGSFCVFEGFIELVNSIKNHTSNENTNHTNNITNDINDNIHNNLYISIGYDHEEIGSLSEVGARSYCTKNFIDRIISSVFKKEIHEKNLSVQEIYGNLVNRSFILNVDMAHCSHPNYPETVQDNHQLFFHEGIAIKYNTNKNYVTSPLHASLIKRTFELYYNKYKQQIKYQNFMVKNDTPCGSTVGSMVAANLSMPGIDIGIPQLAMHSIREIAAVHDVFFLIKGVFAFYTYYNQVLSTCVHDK

[16] = target: T4, Heat shock factor protein 1 (Mus musculus, UniProt P38532); assay: enhancement of HSF1-driven luciferase signal – cell-based, NIH3T3, luminescence, dose retest, confirmation (AID 435004); format: functional;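 note: stress induced by proteasome inhibitor MG132 added 30 min after compound; luciferase reporter driven by HSF1 response element in NIH3T3 cells; actives raise luminescence as potentiators of the MG132 stress response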
T4 sequence (P38532 whole entry): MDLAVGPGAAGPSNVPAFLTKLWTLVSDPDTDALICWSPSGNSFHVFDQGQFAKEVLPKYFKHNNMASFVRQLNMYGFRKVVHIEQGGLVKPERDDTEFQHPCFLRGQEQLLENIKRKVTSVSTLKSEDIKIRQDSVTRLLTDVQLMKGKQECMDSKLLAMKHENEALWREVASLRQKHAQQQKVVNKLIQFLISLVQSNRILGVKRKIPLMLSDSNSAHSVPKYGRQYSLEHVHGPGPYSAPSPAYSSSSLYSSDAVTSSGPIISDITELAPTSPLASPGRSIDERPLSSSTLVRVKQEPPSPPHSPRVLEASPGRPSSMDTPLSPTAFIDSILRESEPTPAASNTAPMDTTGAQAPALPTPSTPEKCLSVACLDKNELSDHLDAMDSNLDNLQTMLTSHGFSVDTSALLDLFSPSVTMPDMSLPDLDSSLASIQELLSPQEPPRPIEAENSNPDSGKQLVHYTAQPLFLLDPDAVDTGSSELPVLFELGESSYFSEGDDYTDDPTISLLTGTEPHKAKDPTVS

[17] = NIH-3T3 fibroblast cytotoxicity, dose response, cytotoxicity control, cell-based, fluorescence, Alamar Blue, secondary assay (AID 2327); format: functional;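 note: NIH-3T3 mouse fibroblasts cultured with fluconazole at 8 µg/mL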
Procathepsin L [18] = target: T2, Procathepsin L
Vero [19] = assay: mammalian cell viability reduction – secondary assay, cytotoxicity control for West Nile virus antiviral project, dose response (AID 1650); format: functional; conditions: Chlorocebus sabaeus
Aspartyl aminopeptidase [20] = target: T3, Aspartyl aminopeptidase
[21] = target: T5, Microphthalmia-associated transcription factor (Homo sapiens, UniProt O75030); assay: reducers of TRPM1 reporter luminescence, concentration series – cell-based, SK-MEL-5, cherry-picked, set 3, MITF inhibitor project, dose response (AID 493073); format: functional;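 note: SK-MEL-5 melanoma cells with luciferase driven by the MITF target TRPM1 promoter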
T5 sequence (O75030 whole entry): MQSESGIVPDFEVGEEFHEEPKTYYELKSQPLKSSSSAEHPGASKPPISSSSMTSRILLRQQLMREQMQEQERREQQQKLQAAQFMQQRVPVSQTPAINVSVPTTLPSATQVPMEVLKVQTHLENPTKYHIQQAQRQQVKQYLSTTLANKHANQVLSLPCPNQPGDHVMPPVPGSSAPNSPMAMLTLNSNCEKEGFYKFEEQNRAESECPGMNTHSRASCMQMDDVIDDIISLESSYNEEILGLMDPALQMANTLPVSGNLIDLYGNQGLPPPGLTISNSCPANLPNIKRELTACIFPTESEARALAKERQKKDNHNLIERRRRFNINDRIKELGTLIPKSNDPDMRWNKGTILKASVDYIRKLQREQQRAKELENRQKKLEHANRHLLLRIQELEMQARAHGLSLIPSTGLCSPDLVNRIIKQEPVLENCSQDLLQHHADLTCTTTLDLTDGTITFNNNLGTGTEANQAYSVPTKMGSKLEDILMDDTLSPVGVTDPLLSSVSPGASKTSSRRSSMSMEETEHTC

Vero [22] = assay: inhibition of WNV-induced cytopathic effect – cell-based, CPE readout (AID 1621); format: functional; conditions: Chlorocebus sabaeus
Paired box protein Pax-8 = Paired box protein Pax-8 (Homo sapiens, UniProt Q06710); assay: PAX8 transcriptional activity inhibition in RMG-I – RMG-I cells, luciferase, cherry-pick, dose response (AID 687027); format: functional, cell-based;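 note: luciferase reporter driven by Pax8 target thyroperoxidase promoter measured by SteadyGlo luminescence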
[23] = fluconazole-exposed Candida albicans growth modulators – fluorescence, retest, confirmation (AID 2467); format: functional, cell-based
[24] = target: Muscarinic acetylcholine receptor M1 (Rattus norvegicus, UniProt P08482); assay: concentration-dependent potentiation of ACh at M1 – cell-based, calcium mobilization, CHO-K1, ACh EC20, dose response (AID 2425); format: functional
Cytochrome P450 2C19 = Cytochrome P450 2C19 (Homo sapiens, UniProt P33261); assay: qHTS Assay for Inhibitors and Substrates of Cytochrome P450 2C19. [Related pubchem assays: 410 ]; format: ADME; conditions: read-out: Potency
Bcl-2-related protein A1 [25] = target: T6, Bcl-2-related protein A1 (Mus musculus, UniProt Q07440); assay: displacement of Bid BH3 peptide from Bfl-1 – biochemical, fluorescence polarization, FITC-Bid, mouse, primary screen (AID 432)
T6 sequence (Q07440 whole entry): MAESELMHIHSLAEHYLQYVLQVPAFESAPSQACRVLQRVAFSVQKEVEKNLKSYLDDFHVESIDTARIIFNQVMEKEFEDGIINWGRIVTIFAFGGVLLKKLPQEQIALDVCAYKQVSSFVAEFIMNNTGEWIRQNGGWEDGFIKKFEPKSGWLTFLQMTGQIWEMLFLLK

Bcl-2-related protein A1 [26] = target: T6, Bcl-2-related protein A1; assay: small-molecule antagonists of Bfl-1/BH3 interaction – biochemical, TR-FRET, mouse Bfl-1, confirmation (AID 621);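 note: TR-FRET binding of GST-Bfl-1 to FITC-labelled Bid peptide via terbium antibody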
[27] = target: Photoreceptor-specific nuclear receptor (Homo sapiens, UniProt Q9Y5X4); assay: ligands suppressing NR2E3 nuclear receptor activity – biochemical, TR-FRET, dose response (AID 463256); format: functional
[28] = target: T4, Heat shock factor protein 1; assay: decrease of HSF1-responsive luciferase luminescence – cell-based, NIH3T3, dose retest, confirmation (AID 2382); format: functional;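 note: NIH3T3 fibroblasts with HSF1-driven luciferase reporter stressed by proteasome inhibitor MG132; luminescence from HSF1-driven luciferase expression after 8 hours of MG132 stress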
[29] = target: Peroxisome proliferator-activated receptor gamma/Nuclear receptor corepressor 2 (Homo sapiens, UniProt P37231+Q9Y618); assay: Counterscreen for NR2E3 inverse agonists: TR-FRET-based biochemical high throughput dose response assay to identify inverse agonists of the interaction between peroxisome proliferator-activated receptor gamma (PPARg) and nuclear receptor co-repressor 2 (NCOR2).; format: functional
NADPH oxidase 1 = NADPH oxidase 1 (Homo sapiens, UniProt Q9Y5S8); assay: Late-stage luminescence-based cell-based dose response assay to identify inhibitors of NADPH oxidase 1 (NOX1): Purchased analogs 2.; format: functional
Chain of NADPH oxidase 1 (Q9Y5S8 whole entry): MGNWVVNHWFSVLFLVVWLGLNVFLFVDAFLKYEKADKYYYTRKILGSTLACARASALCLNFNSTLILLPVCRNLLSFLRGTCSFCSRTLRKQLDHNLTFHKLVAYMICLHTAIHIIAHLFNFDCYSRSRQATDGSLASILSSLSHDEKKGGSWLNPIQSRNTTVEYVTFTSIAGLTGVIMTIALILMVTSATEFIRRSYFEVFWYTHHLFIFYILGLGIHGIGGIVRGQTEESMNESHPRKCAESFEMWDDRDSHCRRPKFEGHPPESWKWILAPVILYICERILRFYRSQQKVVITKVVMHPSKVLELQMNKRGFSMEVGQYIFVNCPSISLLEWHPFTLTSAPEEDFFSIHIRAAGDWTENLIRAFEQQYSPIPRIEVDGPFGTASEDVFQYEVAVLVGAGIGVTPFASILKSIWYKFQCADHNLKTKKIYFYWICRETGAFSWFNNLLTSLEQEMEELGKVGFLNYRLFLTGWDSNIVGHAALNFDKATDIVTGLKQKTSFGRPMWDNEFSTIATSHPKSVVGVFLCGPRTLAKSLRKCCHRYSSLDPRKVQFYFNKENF

T2 sequence (P07711 whole entry): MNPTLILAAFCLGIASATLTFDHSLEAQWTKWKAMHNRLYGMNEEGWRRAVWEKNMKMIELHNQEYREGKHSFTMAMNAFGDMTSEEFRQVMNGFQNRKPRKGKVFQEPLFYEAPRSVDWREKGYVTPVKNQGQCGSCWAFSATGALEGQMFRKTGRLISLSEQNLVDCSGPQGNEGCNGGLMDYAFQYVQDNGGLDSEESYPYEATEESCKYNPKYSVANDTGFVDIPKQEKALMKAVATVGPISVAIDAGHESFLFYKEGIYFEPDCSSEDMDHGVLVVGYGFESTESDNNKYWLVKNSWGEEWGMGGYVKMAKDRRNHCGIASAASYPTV
Chain of Photoreceptor-specific nuclear receptor (Q9Y5X4 whole entry): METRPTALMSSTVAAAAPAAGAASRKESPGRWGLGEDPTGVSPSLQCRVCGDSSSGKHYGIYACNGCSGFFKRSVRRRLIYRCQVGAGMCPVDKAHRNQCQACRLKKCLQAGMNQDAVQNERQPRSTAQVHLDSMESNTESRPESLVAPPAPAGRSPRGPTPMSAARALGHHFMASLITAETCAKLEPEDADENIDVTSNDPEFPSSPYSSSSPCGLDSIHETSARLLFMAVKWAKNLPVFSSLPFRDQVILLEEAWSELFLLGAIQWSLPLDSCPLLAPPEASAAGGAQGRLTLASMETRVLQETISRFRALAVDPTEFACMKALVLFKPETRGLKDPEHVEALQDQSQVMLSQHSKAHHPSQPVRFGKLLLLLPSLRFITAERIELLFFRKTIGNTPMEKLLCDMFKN
Chain of Cytochrome P450 2C19 (P33261 whole entry): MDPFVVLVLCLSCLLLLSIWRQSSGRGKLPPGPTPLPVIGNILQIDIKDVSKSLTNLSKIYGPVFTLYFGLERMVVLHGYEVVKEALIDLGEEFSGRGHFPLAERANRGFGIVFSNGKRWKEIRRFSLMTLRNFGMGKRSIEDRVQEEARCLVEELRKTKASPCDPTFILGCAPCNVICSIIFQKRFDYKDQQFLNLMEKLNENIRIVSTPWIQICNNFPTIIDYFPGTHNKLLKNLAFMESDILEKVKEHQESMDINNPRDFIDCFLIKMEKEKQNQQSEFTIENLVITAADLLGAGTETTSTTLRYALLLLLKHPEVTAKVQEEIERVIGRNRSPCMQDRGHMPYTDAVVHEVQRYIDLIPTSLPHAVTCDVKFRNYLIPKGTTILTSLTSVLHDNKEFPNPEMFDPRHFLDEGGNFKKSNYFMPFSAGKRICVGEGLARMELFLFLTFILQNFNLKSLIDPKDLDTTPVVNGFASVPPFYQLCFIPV
Chain of Nonstructural protein 1 (Q194T2 whole entry): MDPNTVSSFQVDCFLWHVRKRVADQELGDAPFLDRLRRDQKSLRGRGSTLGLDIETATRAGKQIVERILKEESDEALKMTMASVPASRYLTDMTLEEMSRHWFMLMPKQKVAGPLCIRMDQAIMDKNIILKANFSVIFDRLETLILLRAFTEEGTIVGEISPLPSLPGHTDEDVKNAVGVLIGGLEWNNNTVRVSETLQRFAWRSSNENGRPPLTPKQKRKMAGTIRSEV
Chain of Paired box protein Pax-8 (Q06710 whole entry): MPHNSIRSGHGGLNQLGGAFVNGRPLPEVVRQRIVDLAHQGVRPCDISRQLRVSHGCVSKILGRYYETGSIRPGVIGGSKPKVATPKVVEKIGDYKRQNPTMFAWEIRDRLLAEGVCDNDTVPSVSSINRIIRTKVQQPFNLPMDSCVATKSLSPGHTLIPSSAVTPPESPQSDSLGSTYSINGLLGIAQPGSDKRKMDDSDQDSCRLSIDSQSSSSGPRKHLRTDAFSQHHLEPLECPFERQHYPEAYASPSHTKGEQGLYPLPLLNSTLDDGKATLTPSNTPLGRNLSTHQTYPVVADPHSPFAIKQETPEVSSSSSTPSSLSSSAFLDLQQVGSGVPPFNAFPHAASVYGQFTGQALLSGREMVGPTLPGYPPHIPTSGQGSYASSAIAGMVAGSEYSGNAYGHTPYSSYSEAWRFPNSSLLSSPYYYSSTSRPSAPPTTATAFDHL
Chain of Muscarinic acetylcholine receptor M1 (P08482 whole entry): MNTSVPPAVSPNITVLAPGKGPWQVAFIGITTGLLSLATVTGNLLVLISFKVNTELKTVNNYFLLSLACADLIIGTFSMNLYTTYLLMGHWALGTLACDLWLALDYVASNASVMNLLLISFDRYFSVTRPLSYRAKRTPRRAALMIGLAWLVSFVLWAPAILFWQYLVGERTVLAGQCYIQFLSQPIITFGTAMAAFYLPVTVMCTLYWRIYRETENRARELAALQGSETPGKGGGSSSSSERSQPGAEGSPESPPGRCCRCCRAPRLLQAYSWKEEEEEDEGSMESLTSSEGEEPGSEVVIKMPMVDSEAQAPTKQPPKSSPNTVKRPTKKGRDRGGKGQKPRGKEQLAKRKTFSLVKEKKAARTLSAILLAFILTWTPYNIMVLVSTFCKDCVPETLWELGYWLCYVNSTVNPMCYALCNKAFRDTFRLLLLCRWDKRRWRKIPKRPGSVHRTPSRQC

Structure (SMILES): O=S(=O)(c1ccc(Cl)c(Cl)c1)N1CCc2nc3ccccc3n2CC1
- EC50 [1]: > 20 µM (not active)
- EC50 [2]: 0.49 µM (active)

Structure (SMILES): COc1ccc(C(=O)N/N=C(\C)c2ccccn2)cc1OC
- IC50 (Vero [3]): > 25 µM (active)
- CC50 (Vero [4]): 2.83 µM (active)
- EC50 [5]: 5.69 µM (active)
- EC50 (BJ [6]): 9.02 µM (active)
- IC50 [7]: 0.937 µM (active)
- IC50 (Nonstructural protein 1): 2.93 µM (active)
- CC50 [8]: 9.24 µM (active)
- AC50 (INS1): 0.584 µM (active)
- CC50 [9]: 2.88 µM (active)
- EC50 (BJ [10]): 1.23 µM (active)
- EC50 (BJ [11]): 4.38 µM (active)
- EC50 (BJ [12]): 2.07 µM (active)
- CC50 [13]: 0.822 µM (active)
- IC50 (cells): 3.01 µM (active)

Structure (SMILES): O=C(CSc1nc(O)cc(=O)n1-c1ccccc1)Nc1ccc2c3c(cccc13)CC2
- IC50 (Leucine aminopeptidase): 1.45 µM (active)
- IC50 (Procathepsin L [14]): > 59.6 µM (not active)
- IC50 (Aspartyl aminopeptidase [15]): > 73.5 µM (not active)
- EC50 [16]: > 260 µM (inactive)

Structure (SMILES): BrC(=C\c1ccccc1)/C=N/n1cnnc1
- EC50 [17]: > 150 µM (inconclusive)
- IC50 (Procathepsin L [18]): > 59.6 µM (not active)
- CC50 (Vero [19]): 6.4 µM (active)
- IC50 (Aspartyl aminopeptidase [20]): 1.89 µM (active)
- AC50 [21]: 7.26 µM (active)
- IC50 (Vero [22]): 39.2 µM (active)
- AC50 (Paired box protein Pax-8): 3.84 µM (active)
- EC50 [23]: 1.01 µM (active)

Structure (SMILES): Cc1cc(NC(=O)CS(=O)(=O)c2cn(Cc3cccc(F)c3)c3ccccc23)no1
- EC50 [24]: 5.32 µM (active)

Structure (SMILES): O=c1cc(-c2ccc(O)cc2O)oc2ccccc12
- AC50 (Cytochrome P450 2C19): 6.31 µM (inconclusive)

Structure (SMILES): Brc1ccc(-c2nnc3ccc(N4CCN(c5ccccc5)CC4)nn23)cc1
- IC50 (Bcl-2-related protein A1 [25]): 8.88 µM (active)
- IC50 (Bcl-2-related protein A1 [26]): > 100 µM (not active)

Structure (SMILES): O=C(CCCCCn1c(=S)[nH]c2cc3c(cc2c1=O)OCO3)N1CCN(C(=O)c2ccco2)CC1
- IC50 [27]: 3.68 µM (active)
- EC50 [28]: > 195 µM (not active)
- IC50 [29]: > 39.8 µM (not active)

Structure (SMILES): C=C(NNc1c(F)c(F)nc(F)c1F)c1ccc(-n2cncn2)cc1
- IC50 (NADPH oxidase 1): > 17 µM (not active)
